Measured values: patent US20190256930A1, “BIOMARKERS FOR DETERMINING RESPONSIVENESS TO LSD1 INHIBITORS” (ORYZON GENOMICS, S.A., priority 2016, published 2019)
“And” between values parts separate entries of the source, which are not always exact repeats. Identical values can stand only once.

Legend:
Assay type in all cases: in vivo, human
blast cells = assay: Clinical response: morphological blast differentiation and blast counts in smears of bone marrow aspirate and/or peripheral blood, Phase I extension cohort
Excerpt: As part of a Phase I clinical study assessing the human pharmacokinetics and safety of ORY-1001 in acute leukemia patients, an extension cohort of 14 patients (mean age 57; range 30-78, gender 8M/6F) was opened in order to provide a preliminary assessment of efficacy. A summary of the patients recruited in this extension cohort can be found in Table 1.
Preliminary clinical efficacy endpoints included (a) morphological blast differentiation and (b) decrease in blast %. In addition, gene expression determinations of selected markers were performed.
Each patient received ORY-1001 for oral intake as a solution at a dose of 140 microgram/m2/day (as free base) q.d., during 5 consecutive days with 2 days of rest, for 4 cycles (total of 28 days), or until disease progression or unacceptable toxicity was observed.
For the evaluation of the morphological blast differentiation and blast counts, smears of bone marrow aspirate and/or peripheral blood were prepared, stained by the May-Grünwald-Giemsa method, and microscopically examined in accordance with ICSH guidelines (ICSH guidelines for the standardization of bone marrow specimens and reports, Lee S H, Erber W N, Porwit A, Tomonaga M, Peterson L C; International Council for Standardization In Hematology, International journal of laboratory hematology 2008 October; 30(5):349-64).

ANXA2 = assay: Gene expression by qRT-PCR in peripheral blood of acute leukemia patients; settings: individual patients, within 98 and 168 h after first dose, relative to HPRT1 and pre-dose, negative = up-regulation
Method: (§1) Plasma for pharmacokinetic determinations was separated by centrifugation. The remaining cell volume was resuspended in 2 mL PBS and an aliquot of […] was stabilized in a PAXgene® Blood RNA tube as described by the vendor and kept frozen for subsequent RNA extraction and qRT-PCR.
(§2) RNA extraction was performed using PAXgene® Blood RNA Kit (PreAnalytix) as described by the vendor. RNA quality was assessed using an Agilent 2100 Bioanalyzer™ and quantity was measured using a NanoDrop™ spectrophotometer.
(§3) An amount of 0.5 micrograms of total RNA was reverse transcribed to obtain 1st strand cDNA (iScript® Reverse Transcription Supermix for RTqPCR; Bio-Rad).
(§4) Gene expression was analyzed by qRT-PCR, a variant of the PCR (Polymerase Chain Reaction) method that permits the simultaneous exponential amplification and detection of specific cDNA fragments. Taqman gene expression assays were used, which employ the principle of doubly labeled hydrolysis probes marked with a fluorescent moiety at their 5′ end and with a quencher moiety at the 3′ end, which prevents the generation of fluorescence according to the Förster energy transfer principle.
(§5) In the exponential phase of the amplification reaction, the intensity of the fluorescence is directly proportional to the quantity of PCR product formed. The LightCycler® 480 Software determines the “crossing point” (Cp), i.e. the point where the reaction's fluorescence reaches the maximum of the second derivative of the amplification curve, which corresponds to the point where the acceleration of the fluorescence signal is at its maximum. The Cp values reflect the target mRNA concentration in the original RNA sample. Differences in Cp values (ΔCp) for a gene X of interest in a given sample relative to a control sample reflect changes in mRNA concentration of the gene X in a given amount of total RNA in the respective sample, and are calculated as:
(§6) ΔΔCp, gene X=[Cp(sample, gene X)−Cp(sample, reference gene)]−[Cp(control, gene X)−Cp(control, reference gene)]
(§7) The fold change in mRNA concentration is calculated as 2^−ΔΔCp, a negative ΔΔCp representing an increase in the expression level, and vice versa.
(§8) An amount of 0.5 micrograms of the 1st strand product was used to perform qRT-PCR reactions in triplicate (Taqman® gene expression assay, Life technologies, see Table 3) in a Roche LightCycler®480. In order to analyze the changes in the expression levels of ANXA2, CAMSAP2, CD86, CRISP9, CTSG, GPR65, ITGAM, LY96, LYZ, S100A12, VCAN, and VIM, ΔΔCp values for a given patient and time point were calculated as described above, relative to the endogenous reference gene HPRT1 and to a control sample obtained from the same patient at pre-dose (i.e. prior to administration of the first dose of ORY-1001 to said patient).
(§9) For the analysis of the gene expression data, the time point (or time interval) showing the maximum response is typically selected. This time point/interval may change depending on the specific dose, administration scheme, etc. In the present study, all the gene expression and correlation analysis was performed by using the data obtained after administration of day 5, i.e. within the time interval between 98 and 168 h after the first dose. The maximum response observed within this time interval is referred to in the tables herein as “Maximum response (ΔΔCp) on day 5”.

CAMSAP2 = assay: as above; settings: individual patients, within 98 and 168 h after first dose, relative to HPRT1 and pre-dose, negative = up-regulation
Method: as §1, §2, §3, §4, §5, §6, §7, §8, §9

CD86 = assay: as above; settings: individual patients, within 98 and 168 h after first dose, relative to HPRT1 and pre-dose, negative = up-regulation
Method: as §1, §2, §3, §4, §5, §6, §7, §8, §9

CTSG = assay: as above; settings: individual patients, within 98 and 168 h after first dose, relative to HPRT1 and pre-dose, negative = up-regulation
Method: as §1, §2, §3, §4, §5, §6, §7, §8, §9

GPR65 [1] = assay: as above; settings: individual patients, within 98 and 168 h after first dose, relative to HPRT1 and pre-dose, negative = up-regulation
Method: as §1, §2, §3, §4, §5, §6, §7, §8, §9

ITGAM = assay: as above; settings: individual patients, within 98 and 168 h after first dose, relative to HPRT1 and pre-dose, negative = up-regulation
Method: as §1, §2, §3, §4, §5, §6, §7, §8, §9

LYZ = assay: as above; settings: individual patients, within 98 and 168 h after first dose, relative to HPRT1 and pre-dose, negative = up-regulation
Method: as §1, §2, §3, §4, §5, §6, §7, §8, §9

Ly96 = assay: as above; settings: individual patients, within 98 and 168 h after first dose, relative to HPRT1 and pre-dose, negative = up-regulation
Method: as §1, §2, §3, §4, §5, §6, §7, §8, §9

S100A12 [2] = assay: as above; settings: individual patients, within 98 and 168 h after first dose, relative to HPRT1 and pre-dose, negative = up-regulation
Method: as §1, §2, §3, §4, §5, §6, §7, §8, §9

VCAN = assay: as above; settings: individual patients, within 98 and 168 h after first dose, relative to HPRT1 and pre-dose, negative = up-regulation
Method: as §1, §2, §3, §4, §5, §6, §7, §8, §9

VIM = assay: as above; settings: individual patients, within 98 and 168 h after first dose, relative to HPRT1 and pre-dose, negative = up-regulation
Method: as §1, §2, §3, §4, §5, §6, §7, §8, §9

[3] = test system: S100A12, VCAN, ITGAM, LY96, ANXA2, CD86, GPR65, CRISP9, LYZ, and VIM; assay: Correlation of marker gene expression (qRT-PCR, peripheral blood) with response to ORY-1001; settings: day 5
Method: as §8, §9
Possible correlations between expression changes in marker genes described in table 5 and response to ORY-1001 treatment (see Table 2) were investigated.
The expression levels of Ly96 and ITGAM did additionally correlate with the variation of blast cells in bone marrow (see FIGS. 1A and 1B), particularly in M4/M5 subtypes, further supporting the utility of these marker genes in monitoring response to ORY-1001 treatment in easily accessible samples such as peripheral blood.

S100A12 and VCAN = S100A12 and VCAN gene expression in patients developing a differentiation syndrome; settings: patients developing a differentiation syndrome (Patients 01 and 09); within 98 and 168 h after the first dose
Method: as §8
For the analysis of the gene expression data, the time point (or time interval) showing the maximum response is typically selected. This time point/interval may change depending on the specific dose, administration scheme, etc. In the present study, all the gene expression and correlation analysis was performed by using the data obtained after administration of day 5, i.e. within the time interval between 98 and 168 h after the first dose. The maximum response observed within this time interval is referred to in the tables herein as “Maximum response (ΔΔCp) on day 5”. […]

GPR65 [4] = assay: Gene expression by qRT-PCR in peripheral blood of acute leukemia patients; settings: individual patients
S100A12 [5] = assay: as above; settings: individual patients
[6] = peripheral blood and/or bone marrow, extension cohort of 14 patients, all four FAB subtypes
[7] = patients showing both blast morphological differentiation and a decrease in blast cells, particularly M4/M5
[8] = patients showing no morphological differentiation and/or no effect or increase in blast cells
[9] = within 602 and 768 h after the first administration
[10] = within first 24 h after the first administration

N[C@H]1CC[C@H](N[C@@H]2C[C@H]2c2ccccc2)CC1 [ORY-1001, (trans)-N1-((1R,2S)-2-phenylcyclopropyl)cyclohexane-1,4-diamine]
% Blast variation (peripheral blood) (blast cells; individual patients, peripheral blood, variation of blast % between pre- and post-treatment (day 7 to 29), 140 microgram/m2/day oral): ↓ −32% (peripheral blood) and ↓ −55% (peripheral blood) ^e and =(peripheral blood) and ↓ −55% and =
patients with decrease in blast cells (blast cells; [6]): 6/14
patients with morphologic blast differentiation (blast cells; [6]): 5/14
Maximum response (ΔΔCp) on day 5, ANXA2 (ANXA2): 2.0 ΔΔCp and −1.1 ΔΔCp and −2.6 ΔΔCp and 1.9 ΔΔCp and −1.9 ΔΔCp and −2.0 ΔΔCp and −3.8 ΔΔCp and −1.6 ΔΔCp and −1.4 ΔΔCp and 3.2 ΔΔCp
Maximum response (ΔΔCp) on day 5, CAMSAP2 (CAMSAP2): −2.8 ΔΔCp and −1.9 ΔΔCp and 1.2 ΔΔCp and 3.1 ΔΔCp and 1.6 ΔΔCp and −3.7 ΔΔCp and −4.3 ΔΔCp and −2.5 ΔΔCp and −2.3 ΔΔCp and −3.0 ΔΔCp and −2.9 ΔΔCp and −1.4 ΔΔCp
Maximum response (ΔΔCp) on day 5, CD86 (CD86): −1.8 ΔΔCp and 2.2 ΔΔCp and 2.5 ΔΔCp and −2.9 ΔΔCp and −3.0 ΔΔCp and −2.0 ΔΔCp and −3.3 ΔΔCp and 0.8 ΔΔCp and −4.4 ΔΔCp and −2.5 ΔΔCp and −2.8 ΔΔCp and 1.3 ΔΔCp
Maximum response (ΔΔCp) on day 5, CTSG (CTSG): 2.3 ΔΔCp and 3.9 ΔΔCp and 3.3 ΔΔCp and 1.8 ΔΔCp and 2.2 ΔΔCp and −1.8 ΔΔCp and 7.6 ΔΔCp and −3.6 ΔΔCp and −1.7 ΔΔCp and −2.5 ΔΔCp and −0.7 ΔΔCp
Maximum response (ΔΔCp) on day 5, GPR65 (GPR65 [1]): −1.8 ΔΔCp and −1.4 ΔΔCp and −1.3 ΔΔCp and −3.8 ΔΔCp and 3.1 ΔΔCp and −0.9 ΔΔCp and 2.3 ΔΔCp and −4.8 ΔΔCp and −3.0 ΔΔCp and −2.3 ΔΔCp and 4.4 ΔΔCp and −1.5 ΔΔCp
Maximum response (ΔΔCp) on day 5, ITGAM (ITGAM): 1.7 ΔΔCp and 1.6 ΔΔCp and 2.1 ΔΔCp and −2.3 ΔΔCp and 3.0 ΔΔCp and 3.1 ΔΔCp and −1.3 ΔΔCp and 3.2 ΔΔCp and −3.0 ΔΔCp and −3.7 ΔΔCp and −2.8 ΔΔCp and 1.8 ΔΔCp
Maximum response (ΔΔCp) on day 5, LYZ (LYZ): 2.9 ΔΔCp and 3.2 ΔΔCp and −1.2 ΔΔCp and 1.7 ΔΔCp and −2.3 ΔΔCp and 2.5 ΔΔCp and −2.2 ΔΔCp and −3.9 ΔΔCp and −0.6 ΔΔCp and 2.4 ΔΔCp and 1.2 ΔΔCp
Maximum response (ΔΔCp) on day 5, Ly96 (Ly96): −1.6 ΔΔCp and −2.9 ΔΔCp and 2.3 ΔΔCp and −3.3 ΔΔCp and 3.0 ΔΔCp and −4.3 ΔΔCp and −3.1 ΔΔCp and −4.8 ΔΔCp and 2.4 ΔΔCp and −3.2 ΔΔCp and −5.1 ΔΔCp and −4.1 ΔΔCp and −1.5 ΔΔCp
Maximum response (ΔΔCp) on day 5, S100A12 (S100A12 [2]): −4.5 ΔΔCp and −1.7 ΔΔCp and 1.7 ΔΔCp and 1.3 ΔΔCp and 2.7 ΔΔCp and −5.0 ΔΔCp and 3.0 ΔΔCp and 0.8 ΔΔCp and 2.4 ΔΔCp and 2.0 ΔΔCp and 2.1 ΔΔCp and 3.9 ΔΔCp and −2.1 ΔΔCp
Maximum response (ΔΔCp) on day 5, VCAN (VCAN): 2.2 ΔΔCp and 2.0 ΔΔCp and −0.8 ΔΔCp and −9.1 ΔΔCp and 1.8 ΔΔCp and 3.4 ΔΔCp and −2.2 ΔΔCp and −2.1 ΔΔCp and −4.2 ΔΔCp and −1.2 ΔΔCp and 1.6 ΔΔCp and 1.2 ΔΔCp
Maximum response (ΔΔCp) on day 5, VIM (VIM): −1.2 ΔΔCp and −1.3 ΔΔCp and −0.5 ΔΔCp and 2.2 ΔΔCp and 1.7 ΔΔCp and −2.4 ΔΔCp and −3.4 ΔΔCp and −2.2 ΔΔCp and −0.4 ΔΔCp and 1.3 ΔΔCp and −0.6 ΔΔCp
up-regulation of the gene markers (fold) [3, 7]: 1.3 to 550 fold
up-regulation of the gene markers (ΔΔCp) [3, 7]: −0.4 to −9.1 ΔΔCp
down-regulation of some of the genes (fold change) [3, 8]: 0.6 to 0.05 fold
down-regulation of some of the genes (ΔΔCp) [3, 8]: 0.8 to 4.4 ΔΔCp
S100A12 and VCAN exacerbated up-regulation (fold) (S100A12 and VCAN): 18 to 550 fold
S100A12 and VCAN exacerbated up-regulation (ΔΔCp) (S100A12 and VCAN): −4.2 to −9.1 ΔΔCp
GPR65 Day 26 maximum response (GPR65 [4]; [9]): −3.2 ΔΔCp and −4.8 ΔΔCp
GPR65 Day 1 maximum response (GPR65 [4]; [10]): 2.2 ΔΔCp and −1.1 ΔΔCp
S100A12 Day 26 maximum response (S100A12 [5]; [9]): −7.1 ΔΔCp and −2.8 ΔΔCp
S100A12 Day 1 maximum response (S100A12 [5]; [10]): −2.1 ΔΔCp and −0.4 ΔΔCp
